Converted amounts (≈) assume the structure as drawn. “And” between values parts separate entries of the source, which are not always exact repeats. Equal values may be shown once. Read-outs that look alike come from different tables or passages of the source.
How the values were obtained:
[1] = system: wild-type K-12 E. coli (ATCC: MG1655); assay: Antimicrobial activity against E. coli K-12 grown in CAMHB; type: cell-based; details: Escherichia coli, MG1655, 16 h, read-out: minimum inhibitory concentration (MIC90)
Method: FIG. 7A and FIG. 7B are charts showing representative growth curves are shown for BAP (FIG. 7A) and BnAP (FIG. 7B). Alkylacetylphosphonates exert dose-dependent delay in E. coli K-12 (MG 1655) growth in CAMHB. Fractional growth (measured at 16 h, blue arrow) was determined relative to the no drug control. Standardized cell cultures were exposed to increasing concentrations of acetylphosphonate, and growth was determined by measuring the OD600 for a period of 16 hours. Acetylphosphonate concentration was varied from 0-5 mM: No drug (light blue), 0.08 mM (orange), 0.16 mM (gray), 0.31 mM (yellow), 0.63 mM (blue), 1.25 mM (green), 2.5 mM (dark blue) and 5.0 mM (brown).
Thus, BnAP, PentAP, HexAP and OctAP, also shown to inhibit DXP synthase, were evaluated for antimicrobial activity against wild-type K-12 E. coli (ATCC: MG1655) grown in rich medium (CAMHB).

E. coli DXP synthase = biological target: T1, E. coli DXP synthase (Escherichia coli, UniProt P77488); assay: biochemical
T1 construct: made in house
Method: FIG. 4A, FIG. 4B, and FIG. 4C are charts showing competitive inhibition of DXP synthase by pentylacetylphosphonate (PentAP; FIG. 4A), hexylacetylphosphonate (HexAP; FIG. 4B), and octylacetyl phosphonate (OctAP; FIG. 4C). Inhibition assays were performed as previously described^[18], [40]). […] Pyruvate concentration was varied from 12-240 μM and acetylphosphonate concentration was varied: 0 μM (∘), 10 μM (●), 25 μM (□) and 50 μM (▪). Experiments were performed in triplicate, and data were subjected to non-linear regression analysis for Ki determinations (GraphPad Prism). Representative Lineweaver-Burk plots (GraFit from Erithacus Software) are shown for PentAP (FIG. 4A), HexAP (FIG. 4B) and OctAP (FIG. 4C) to illustrate the competitive inhibition mode with respect to pyruvate.
Inhibition of DXP synthase was measured as previously described^[13], [18]. […] Acetylphosphonate concentration was varied from 0 to 250 μM. […] Experiments were performed in triplicate for BAP and in duplicate for iPrAP
In order to evaluate the inhibitory activity of BnAP against DXP synthase, a continuous spectrophotometric coupled assay was used to measure formation of DXP by monitoring IspC consumption of NADPH (340 nm). ^[2] DXP synthase reaction mixtures (previously described) including BnAP (15, 30, and 60 μM), IspC (1 μM) and NADPH (100 μM) were pre-incubated at 37° C. for 5 minutes. Initial rates were measured after the reaction was initiated by the addition of DXP synthase. Inhibition of the coupling enzyme (IspC) by BnAP was not observed up to 1.5 mM. Experiments were performed in triplicate. Double reciprocal analysis of data was carried out using GraFit version 7 from Erithacus Software.

[2] = biological target: T2, Porcine pyruvate dehydrogenase (PDH E1 subunit) (Sus scrofa, UniProt P29804); assay: Inhibition of PDH by acetylphosphonates; type: biochemical; details: Ki^PDH
T2 construct: Ki^PDH; μM); Ki^PDH
T2 sequence (P29804 1-390): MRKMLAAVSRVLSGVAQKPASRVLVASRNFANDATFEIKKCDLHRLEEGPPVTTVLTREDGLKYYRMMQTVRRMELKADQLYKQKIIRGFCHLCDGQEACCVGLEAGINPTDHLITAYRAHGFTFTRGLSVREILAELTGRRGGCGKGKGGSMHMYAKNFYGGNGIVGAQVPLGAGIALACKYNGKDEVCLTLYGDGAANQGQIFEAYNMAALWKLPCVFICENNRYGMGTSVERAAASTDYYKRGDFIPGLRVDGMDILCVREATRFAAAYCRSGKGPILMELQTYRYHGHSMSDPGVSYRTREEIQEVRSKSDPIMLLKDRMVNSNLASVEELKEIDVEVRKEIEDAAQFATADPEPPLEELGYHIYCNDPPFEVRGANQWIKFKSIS
Method: FIG. 6A, FIG. 6B, and FIG. 6C are charts showing Competitive inhibition of procine PDH E1 subunit by PentAP (FIG. 6A), HexAP (FIG. 6B) and OctAP (FIG. 6C). Inhibition assays were performed as previously described^[18]. Pyruvate concentration was varied from 12.5-250 μM and acetylphosphonate concentration was varied: 0 μM (∘), 250 μM (PentAP) or 200 μM (HexAP and OctAP) (●), 500 μM (□) and 1000 μM (▪). Experiments were performed in triplicate, and data were subjected to non-linear regression analysis for Ki determinations (GraphPad Prism). Representative Lineweaver-Burk plots (GraFit from Erithacus Software) are shown for PentAP (FIG. 6A), HexAP (FIG. 6B) and OctAP (FIG. […]) to illustrate the competitive inhibition mode with respect to pyruvate.
Pyruvate dehydrogenase activity was measured spectrophotometrically as previously reported ^[38] by monitoring absorbance changes at 340 nm due to reduction of NAD^+ by PDH. Reaction mixtures contained 100 mM HEPES (pH 8.0), 1 mg/mL BSA, 0.2 mM ThDP, 0.1 mM coenzyme A, 1 mM MgCl2, 2 mM cysteine, 0.3 mM tris(2-carboxyethyl)phosphine (TCEP). The reaction was initiated with enzyme (0.01 units/ml) and activity was monitored at 30° C. For inhibition studies, reaction mixtures (described above) including BnAP (0.5, 1, 2.25 mM) were pre-incubated at 30° C. for 5 minutes. Initial rates were measured immediately after reactions were initiated by addition of PDH (0.01 units/ml). Double reciprocal analysis of data was carried out using GraFit version 7 from Erithacus Software.

[3] = biological target: T3, E. coli DXP synthase (DXPS) (Escherichia coli, UniProt P77488); type: biochemical; details: for kcat: acceptor substrate turnover
T3 construct: made in house
T3 sequence (P77488 1-620): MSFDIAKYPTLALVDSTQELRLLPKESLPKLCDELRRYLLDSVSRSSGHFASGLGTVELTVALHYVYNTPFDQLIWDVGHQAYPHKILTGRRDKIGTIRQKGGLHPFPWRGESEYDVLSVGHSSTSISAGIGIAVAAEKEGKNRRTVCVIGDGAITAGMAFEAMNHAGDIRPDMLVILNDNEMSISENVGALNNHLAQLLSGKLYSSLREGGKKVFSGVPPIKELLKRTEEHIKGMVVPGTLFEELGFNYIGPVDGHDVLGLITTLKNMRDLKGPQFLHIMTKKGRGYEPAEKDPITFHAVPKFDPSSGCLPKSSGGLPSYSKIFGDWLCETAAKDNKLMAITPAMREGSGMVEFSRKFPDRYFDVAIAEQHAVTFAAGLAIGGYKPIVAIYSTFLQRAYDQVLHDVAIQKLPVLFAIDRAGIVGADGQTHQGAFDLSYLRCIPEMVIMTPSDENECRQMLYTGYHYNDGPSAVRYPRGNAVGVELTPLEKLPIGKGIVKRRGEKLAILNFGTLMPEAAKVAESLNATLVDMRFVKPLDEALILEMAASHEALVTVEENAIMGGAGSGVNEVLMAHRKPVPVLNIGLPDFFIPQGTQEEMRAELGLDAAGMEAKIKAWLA
Method: Reaction mixtures containing 100 mM HEPES, pH 8.0, 2 mM MgCl2, 5 mM NaCl, 1 mM ThDP, 1 mg/mL BSA, 10-20 mM pyruvate, 10% DMSO, 0.5 mM 5 mM nitroso substrate were pre-incubated at 37° C. for 5 min. […] Aliquots of enzymatic mixture were removed at various time intervals and quenched into an equal volume of cold methanol. Quenched mixtures were incubated on ice for 20 minutes. Precipitated proteins were removed by centrifugation, and the supernatant was analyzed by HPLC with UV detection using the following conditions: Flow rate=3 mL/min; Solvent A: 100 mM NH4OAc, pH 4.6; Solvent B: acetonitrile; Method: 0-100% B over 10 min. New products formed were extracted from the supernatant using ethyl acetate (3×). […] Products were subsequently characterized by mass spectrometry.
Reaction mixtures containing 100 mM HEPES, pH 8.0, 2 mM MgCl2, 5 mM NaCl, 1 mM ThDP, 1 mg/mL BSA, 10-20 mM pyruvate, 10% DMSO v/v, and 10-300 μM nitroso substrate were pre-incubated at 37° C. for 5 min. […] Substrate concentration as a function of time was determined from absorbance values using Beer's Law. Initial reaction rates were determined from the linear range of the reaction progress curve, usually within 1-3 min. Data analysis to determine kcat and Km for each alternative substrate was carried out using GraFit version 7 from Erithacus Software.

DXP synthase = biological target: T4, DXP synthase (Escherichia coli, UniProt P77488); assay: Inhibition of DXP formation by nitroso substrates (HPLC-based assay); type: biochemical, E. coli; details: 30 μM D-GAP, 80 μM pyruvate, 37° C.; average ± SEM
T4 construct: made in house
T4 sequence (P77488 1-620): T3 sequence (P77488 1-620)
Method: Enzyme reactions were initiated by addition of 0.1 μM DXP synthase. Aliquots (150 μL) of the enzymatic mixture were removed between 0.5 and 3 minutes and quenched into ice-cold methanol (150 μL). Precipitated protein was removed by centrifugation, and the supernatant was diluted in an equal volume of water. The nitroso substrate was removed by extraction into acetonitrile (3×), using a previously described freeze-extraction technique. ^[32] […] The derivatization mixtures were analyzed by HPLC as previously described. ^[19] To determine initial reaction rates in the presence of varying inhibitor concentration, the D,L-GAP and DXP hydrazone HPLC peak areas were measured, and the product concentration was determined as a percent of total peak area and plotted against reaction time. Initial rates GraFit version 7 from Erithacus Software was utilized to generate IC50 curves.

porcine PDH E1 subunit = type: biochemical
Method: Reaction mixtures containing 100 mM HEPES, pH 8.0, 2 mM MgCl2, 5 mM NaCl, 1 mM ThDP, 1 mg/mL BSA, 10-20 mM pyruvate, 10% DMSO v/v, and 10-300 μM nitroso substrate were pre-incubated at 37° C. for 5 min. Enzymatic reactions were initiated by addition of 0.5-2 μM DXP synthase (or 0.1 units/ml PDH) and monitored spectrophotometrically by measuring the rate of disappearance of the nitroso substrate at its corresponding λmax. Substrate concentration as a function of time was determined from absorbance values using Beer's Law. Initial reaction rates were determined from the linear range of the reaction progress curve, usually within 1-3 min. Data analysis to determine kcat and Km for each alternative substrate was carried out using GraFit version 7 from Erithacus Software.

[4] = Ki (DXP synthase), competitive with respect to pyruvate
[5] = Table 4, read-out: In vitro DXP syn IC50
[6] = 10-20 mM pyruvate, pH 8.0, 10% DMSO, 37° C., average ± SEM
[7] = acceptor substrate, 10-20 mM pyruvate, pH 8.0, 10% DMSO, 37° C., average ± SEM

CC(=O)P(=O)(O)OCc1ccccc1 [Compound 1, benzyl acetylphosphonate]
MIC90 [1]: 630 µM (≈ 135 µg/mL)
Ki (E. coli DXP synthase; [4]): 10.4 ± 1.3 µM
Ki (E. coli DXP synthase; Ki (DXP synthase, with respect to D-GAP), uncompetitive with respect to D-GAP, 200 μM pyruvate): 70 ± 8 µM
Ki (E. coli DXP synthase; Ki^DXPS, Table 5 (no unit in table; μM), vs pyruvate): 10 ± 1 µM
Ki ([2]; Table 5 (no unit in table; μM)): 880 ± 78 µM
Ki ([2]; competitive with respect to pyruvate): 882 ± 78 µM

CC(=O)P(=O)(O)OC1Cc2ccccc2C1 [Compound 2]
IC50 (E. coli DXP synthase; [5]): 64.5 µM

COc1cccc(COP(=O)([O-])C(C)=O)c1.[Li+] [Compound 3]
kcat [3, 6]: 0.6 ± 0.12 s⁻¹
Km [3, 7]: 99 ± 16 µM
IC50 (E. coli DXP synthase; [5]): 37.4 µM

CC(=O)P(=O)([O-])OCCc1cccc2ccccc12.[Li+] [Compound 5]
kcat [3, 6]: 0.0183 ± 0.0033 s⁻¹
Km [3, 7]: 41 ± 10 µM
IC50 (E. coli DXP synthase; [5]): 77 µM
Ki (E. coli DXP synthase; Table 4, read-out: In vitro DXP syn Ki): 55 µM

O=Nc1c(O)ccc2cc(Br)ccc12 [Compound 6]
kcat [3, 6]: 0.0333 ± 0.0033 s⁻¹
Km [3, 7]: 24 ± 6 µM

NS(=O)(=O)c1ccc2c(N=O)c(O)ccc2c1 [Compound 7]
kcat [3, 6]: 0.0197 ± 0.00067 s⁻¹
Km [3, 7]: 18 ± 4 µM

COc1ccc2ccc(O)c(N=O)c2c1 [Compound 8]
kcat [3, 6]: 0.0217 ± 0.0033 s⁻¹
Km [3, 7]: 63 ± 7 µM
IC50 (DXP synthase): > 2000 µM

Cc1nn(C(C)C)c(C)c1N=O [Compound 9]
kcat [3, 6]: 0.0233 ± 0.0033 s⁻¹
Km [3, 7]: 387 ± 18 µM
IC50 (DXP synthase): > 2000 µM

O=Nc1ccc(O)c2ncccc12 [Compound 10]
substrate usage by DXP synthase ([3]; in words): did not act as substrate

C=CCOP(=O)(O)C(C)=O [Compound 12]
IC50 (E. coli DXP synthase): 20 µM

O=C[C@H](O)COP(=O)(O)O [D-GAP, D-glyceraldehyde 3-phosphate, reference compound]
kcat [3, 6]: 1.7 ± 0.12 s⁻¹
Km ([3]; pH 8): 28 ± 4 µM

CCCCCCOP(=O)(O)C(C)=O [HexAP, Hexylacetylphosphonate]
MIC90 [1]: 5000 µM (≈ 1040 µg/mL)
Ki (E. coli DXP synthase; [4]): 8.9 ± 0.5 µM
Ki ([2]; Table 5 (no unit in table; μM)): 117 ± 9 µM

O=Nc1ccccc1 [Substrate 1, nitrosobenzene, reference compound]
increase in Km for PDH compared to DXP synthase (porcine PDH E1 subunit): 2.7 fold

CC(=O)P(=O)(O)OC(C)C [iPrAP, Isopropylacetylphosphonate]
IC50 (E. coli DXP synthase; pyruvate 95 μM, D-GAP 56 μM, error 95% Confidence Interval, read-out: IC50 (DXP synthase)): 250 µM and 245 µM
